Reference: US20210300943A1, “OGA INHIBITOR COMPOUNDS” (Janssen Pharmaceutica NV, priority 2018, published 2021)

Molecular target: T1, recombinant human Meningioma Expressed Antigen 5 (MGEA5), also referred to as O-GlcNAcase (OGA) (Homo sapiens, UniProt O60502)
T1 construct: Full length OGA enzyme was purchased at OnGene (cat #TP322411); purchased OnGene (so in the source)
T1 sequence (O60502 1-916): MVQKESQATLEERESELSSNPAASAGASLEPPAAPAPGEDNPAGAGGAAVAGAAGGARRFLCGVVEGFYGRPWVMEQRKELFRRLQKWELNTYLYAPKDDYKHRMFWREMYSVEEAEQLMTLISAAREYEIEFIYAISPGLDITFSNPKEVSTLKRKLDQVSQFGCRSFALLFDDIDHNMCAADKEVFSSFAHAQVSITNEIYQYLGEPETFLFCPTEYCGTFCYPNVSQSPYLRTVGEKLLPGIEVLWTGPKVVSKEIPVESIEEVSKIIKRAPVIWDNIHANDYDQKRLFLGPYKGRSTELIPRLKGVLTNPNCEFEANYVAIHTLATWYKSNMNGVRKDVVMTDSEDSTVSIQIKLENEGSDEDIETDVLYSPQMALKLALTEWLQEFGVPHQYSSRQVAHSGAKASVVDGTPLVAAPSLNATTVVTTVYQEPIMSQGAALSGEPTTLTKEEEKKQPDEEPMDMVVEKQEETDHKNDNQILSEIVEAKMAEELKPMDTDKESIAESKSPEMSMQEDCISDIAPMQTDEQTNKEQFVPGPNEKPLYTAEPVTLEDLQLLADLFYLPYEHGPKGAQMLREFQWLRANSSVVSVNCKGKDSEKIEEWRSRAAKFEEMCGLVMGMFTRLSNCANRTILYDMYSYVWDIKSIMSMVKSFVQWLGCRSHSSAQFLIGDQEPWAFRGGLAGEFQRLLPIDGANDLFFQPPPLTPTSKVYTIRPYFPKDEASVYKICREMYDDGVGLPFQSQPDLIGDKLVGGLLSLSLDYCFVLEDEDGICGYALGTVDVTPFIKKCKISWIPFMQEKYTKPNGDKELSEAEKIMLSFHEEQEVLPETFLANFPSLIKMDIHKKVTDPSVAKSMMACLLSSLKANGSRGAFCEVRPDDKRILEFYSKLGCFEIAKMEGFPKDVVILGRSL
Experiment: OGA biochemical assay (inhibition of FM-GlcNAc hydrolysis, fluorescence)
Details: for Emax / Enzymatic Emax (%): maximal effect; for Emax: read-out: Enzymatic Emax (%); for IC50: read-out: Enzymatic hOGA, pIC50 (converted)
Text: The assay is based on the inhibition of the hydrolysis of fluorescein mono-β-D-N-Acetyl-Glucosamine (FM-GlcNAc) (Mariappa et al. 2015, Biochem J 470:255) by the recombinant human Meningioma Expressed Antigen 5 (MGEA5), also referred to as O-GlcNAcase (OGA). The hydrolysis FM-GlcNAc (Marker Gene technologies, cat #M1485) results in the formation of β-D-N-glucosamineacetate and fluorescein. The fluorescence of the latter can be measured at excitation wavelength 485 nm and emission wavelength 538 nm. An increase in enzyme activity results in an increase in fluorescence signal. Full length OGA enzyme was purchased at OnGene (cat #TP322411). The enzyme was stored in 25 mM Tris.HCl, pH 7.3, 100 mM glycine, 10% glycerol at −20° C. Thiamet G and GlcNAcStatin were tested as reference compounds (Yuzwa et al. 2008 Nature Chemical Biology 4:483; Yuzwa et al. 2012 Nature Chemical Biology 8:393). The assay was performed in 200 mM Citrate/phosphate buffer supplemented with 0.005% Tween-20. 35.6 g Na2HPO42H2O (Sigma, #C0759) were dissolved in 1 L water to obtain a 200 mM solution. 19.2 g citric acid (Merck, #1.06580) was dissolved in 1 L water to obtain a 100 mM solution. pH of the sodiumphosphate solution was adjusted with the citric acid solution to 7.2. The buffer to stop the reaction consists of a 500 mM Carbonate buffer, pH 11.0. 734 mg FM-GlcNAc were dissolved in 5.48 mL DMSO to obtain a 250 mM solution and was stored at −20° C. OGA was used at a 2 nM concentration and FM-GlcNAc at a 100 uM final concentration. Dilutions were prepared in assay buffer.
50 nl of a compound dissolved in DMSO was dispensed on Black Proxiplate TM 384 Plus Assay plates (Perkin Elmer, #6008269) and 3 μl fl-OGA enzyme mix added subsequently. Plates were pre-incubated for 60 min at room temperature and then 2 μl FM-GlcNAc substrate mix added. […] Plates were briefly centrifuged for 1 min at 1000 rpm and incubate at room temperature for 6 h. To stop the reaction 5 μl STOP buffer were added and plates centrifuge again 1 min at 1000 rpm. Fluorescence was quantified in the Thermo Scientific Fluoroskan Ascent or the PerkinElmer EnVision with excitation wavelength 485 nm and emission wavelength 538 nm.
For analysis a best-fit curve is fitted by a minimum sum of squares method. From this an IC50 value and Hill coefficient was obtained. High control (no inhibitor) and low control (saturating concentrations of standard inhibitor) were used to define the minimum and maximum values.

| Structure (SMILES) | Emax | IC50 | Enzymatic Emax (%) |
| --- | --- | --- | --- |
| Cc1cc(C[C@H]2CCCN(C(C)c3ccc4c(c3)OCC(=O)N4)C2)cc(C)n1 (mixture of isomers) [Product 58] | 102% | 126 nM |  |
| Cc1cc(C[C@H]2CCCN(C(C)c3ccc4c(n3)OCC(=O)N4C)C2)cc(C)n1 (mixture of isomers) [Product 62] | 77% | 3160 nM |  |
| Cc1cc(C[C@H]2CCCN(C(C)c3cc4c(cc3C)OCCO4)C2)cc(C)n1 (mixture of isomers) [Product 126] | 1% | > 10000 nM |  |
| Cc1cc([C@H]2CCCN([C@@H](C)c3ccc4c(c3)OCC4)C2)cc(C)n1 (single isomer, unassigned) [Product 5] | 102% | 3.16 nM |  |
| Cc1cc([C@@H]2CCCN([C@H](C)c3ccc4c(c3)OCC4)C2)cc(C)n1 (single isomer, unassigned) [Product 6] | 101% | 126 nM |  |
| Cc1cc(C[C@H]2CCCN([C@H](C)c3cc4c(cc3F)OCCO4)C2)cc(C)n1 (single isomer, unassigned) [Product 41] | 94% | 1000 nM |  |
| Cc1cc(C[C@H]2CCCN(C(C)c3cnc4c(c3)OCCN4)C2)cc(C)n1 (single isomer, unassigned) [Product 51] | 101% | 200 nM |  |
| Cc1cc(C[C@H]2CCCN(C(C)c3ccc4c(n3)OCC(=O)N4)C2)cc(C)n1 (single isomer, unassigned) [Product 60] |  | 3160 nM | 78% |
| Cc1cc([C@@H]2CCCN([C@H](C)c3cc4c(cc3F)OCCO4)C2)cc(C(F)(F)F)n1 (single isomer, unassigned) [Product 141] | 98% | 501 nM |  |
| Cc1cc([C@H]2CCCN([C@H](C)c3cc4c(cc3F)OCCO4)C2)cc(C(F)(F)F)n1 (single isomer, unassigned) [Product 142] | 52% |  |  |
| Cc1cc([C@@H]2CCCN([C@@H](C)c3cc4c(cc3F)OCCO4)C2)cc(C(F)(F)F)n1 (single isomer, unassigned) [Product 143] | 87% | 2510 nM |  |
| Cc1cc([C@H]2CCCN([C@@H](C)c3cc4c(cc3F)OCCO4)C2)cc(C(F)(F)F)n1 (single isomer, unassigned) [Product 144] | 99% | 3.16 nM |  |
| Cc1cc([C@H]2CCCN([C@H](C)c3ccc4c(c3)OCC4)C2)cc(C)n1 [Product 3] | 97% | 794 nM |  |
| Cc1cc(O[C@@H]2CCCN([C@@H](C)c3cnc4c(c3)OCCN4)C2)cc(C(F)(F)F)n1 [Product 17] | 99% | 79.4 nM |  |
| Cc1cc(C[C@H]2CCCN(Cc3cc4c(cc3C)OCCO4)C2)cc(C)n1 [Product 39] | 92% | 794 nM |  |
| Cc1cc(C[C@H]2CCCN(Cc3cnc4c(c3)OCCN4C)C2)cc(C)n1 [Product 53] | 94% | 794 nM |  |
| Cc1cc(C[C@H]2CCCN(Cc3ccc4c(n3)OCC(=O)N4)C2)cc(C)n1 [Product 54] | 78% | 3160 nM |  |
| Cc1cc(C[C@H]2CCCN(Cc3cnc4c(c3)OCC(=O)N4)C2)cc(C)n1 [Product 55] | 90% | 1260 nM |  |
| Cc1cc(C[C@H]2CCCN(Cc3cnc4c(c3)OCC(=O)N4C)C2)cc(C)n1 [Product 127] | 10% | > 10000 nM |  |

Further lines, results first:

| Emax | IC50 | Enzymatic Emax (%) | Structure (SMILES) |
| --- | --- | --- | --- |
| 98% | 316 nM |  | Cc1cc(OC[C@@H]2CCCN(C(C)c3ccc4c(n3)OCCO4)C2)cc(C)n1 (mixture of isomers) [Product 20] |
| 102% | 200 nM |  | COc1cc(NC[C@@H]2CCCN(C(C)c3ccc4c(n3)OCCO4)C2)cc(C)n1 (mixture of isomers) [Product 27] |
| 103% | 79.4 nM |  | COc1cc(NC[C@H]2CCCN(C(C)c3ccc4c(n3)OCCO4)C2)cc(C)n1 (single isomer, unassigned) [Product 25] |
| 99% | 1000 nM |  | COc1cc(NC[C@@H]2CCCN(C(C)c3ccc4c(n3)OCCO4)C2)cc(C)n1 (single isomer, unassigned) [Product 28] |
|  | 79.4 nM | 97% | COc1cc(NC[C@@H]2CCCN(C(C)c3ccc4c(n3)OCCO4)C2)cc(C)n1 (single isomer, unassigned) [Product 29] |
| 99% | 398 nM |  | Cc1cc(NC[C@H]2CCCN([C@H](C)c3ccc4c(n3)OCCO4)C2)cc(C(F)(F)F)n1 (single isomer, unassigned) [Product 32] |
|  | 200 nM | 100% | Cc1cc(NCC2CCCN(C(C)c3ccc4c(n3)OCCO4)C2)cc(C(F)(F)F)n1 (single isomer, unassigned) [Product 34] |
|  | 2510 nM | 88% | Cc1cc(NCC2CCCN(C(C)c3ccc4c(n3)OCCO4)C2)cc(C(F)(F)F)n1 (single isomer, unassigned) [Product 35] |
| 98% | 501 nM |  | Cc1cc(C[C@H]2CCCN(C(C)c3ccc4c(n3)OCCO4)C2)cc(C)n1 (single isomer, unassigned) [Product 45] |
| 97% | 501 nM |  | Cc1cc(C[C@H]2CCCN([C@@H](C)c3cnc4c(c3)OCCO4)C2)cc(C)n1 (single isomer, unassigned) [Product 131] |
| 96% | 501 nM |  | Cc1cnc(C)c(C2CCCN(C(C)c3ccc4c(n3)OCCO4)C2)n1 (stereo not shown) [Product 12] |
| 102% | 5.01 nM |  | Cc1cc(NCC2CCCN(C(C)c3cc4c(cc3F)OCCO4)C2)cc(C)n1 (stereo not shown) [Product 37] |
| 102% | 6.31 nM |  | COc1cc(NCC2CCCN(C(C)c3cc4c(cc3F)OCCO4)C2)cc(C)n1 (stereo not shown) [Product 38] |
| 102% | 200 nM |  | COc1cc(C[C@H]2CCCN([C@@H](C)c3ccc4c(n3)OCCO4)C2)cc(C)n1 [Product 65] |
| 96% | 158 nM |  | CC(c1ccc2c(n1)OCCO2)N1CCCC(Oc2ncc(F)cc2F)C1 (stereo not shown) [Product 134] |
